This is an account of results in patent US9247759B2, “Identification of human T2R receptors that respond to bitter compounds that elicit the bitter taste in compositions, and the use thereof in assays to identify compounds that inhibit (block) bitter taste in compositions and use thereof” (SENOMYX, INC., priority 2007, dated 2016).

Sequence of hT2R8 (Q9NYW2 whole entry): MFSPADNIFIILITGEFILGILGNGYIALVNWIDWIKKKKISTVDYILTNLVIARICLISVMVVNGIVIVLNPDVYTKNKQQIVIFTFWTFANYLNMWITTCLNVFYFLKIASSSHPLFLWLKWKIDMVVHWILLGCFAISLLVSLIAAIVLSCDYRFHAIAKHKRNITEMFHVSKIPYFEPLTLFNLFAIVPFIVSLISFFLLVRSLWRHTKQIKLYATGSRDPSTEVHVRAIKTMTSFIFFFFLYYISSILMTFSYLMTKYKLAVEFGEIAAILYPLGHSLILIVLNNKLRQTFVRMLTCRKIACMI

One assay deals with hT2R8 (Homo sapiens (Human), UniProt Q9NYW2). The assay can be described thus: hT2R8 antagonist high-throughput FLIPR assay, stable cell line with G16g44, agonist andrographolide. In kind it is cell-based. Particulars: Table A; read-out: hT2R8 IC50. The source says:
After a ligand is identified for a particular hT2R, a HEK293 cell line stably expressing both the hT2R and G16gust44 are generated, facilitating future screening assays to identify other ligands that activate the particular hT2R or which modulate (block or enhance) the activation of this hT2R by another bitter ligand such as a bitter compound contained in coffee. This avoids the need for transient transfection.
To identify antagonists, cell lines stably expressing hT2R8 and hT2R14, respectively, together with the promiscuous chimeric G16g44 protein were generated as described in previous patent applications. A high-throughput assay was established using the stable cell lines and FLIPR (Fluorescent Imaging Plate Reader). An agonist of hT2R8 or hT2R14 was used to activate the receptors up to 70-80% of their respective maximal activity. For hT2R8, the agonist used was andrographolide (200 […]); for hT2R14, it was aristolochic acid (3 μM). To identify antagonists, compounds with diverse chemical structures were added together with the agonist.
To identify antagonists, cell lines stably expressing hT2R8 together with the promiscuous chimeric G16g44 protein were generated as described in previous patent applications. A high-throughput assay was established using the stable cell lines and FLIPR (Fluorescent Imaging Plate Reader). An agonist of hT2R8 was used to activate the receptors up to 70-80% of their respective maximal activity. For hT2R8, the agonist used was andrographolide (200 μM). To identify antagonists, compounds with diverse chemical structures were added together with the agonist.
As for `COc1ccc(C(=O)Nc2cnn(Cc3c(C)noc3C)c2)cc1` [Example 4-17, N-(1-((3,5-dimethylisoxazol-4-yl)methyl)-1H-pyrazol-4-yl)-4-methoxybenzamide], the IC50 was determined as 260 nM.

In the case of `COc1cc(OC)cc(C(=O)Nc2cnn(Cc3c(C)noc3C)c2)c1` [Example 4-18, N-(1-((3,5-dimethylisoxazol-4-yl)methyl)-1H-pyrazol-4-yl)-3,5-dimethoxybenzamide], the IC50 was 280 nM.

Take `COc1ccccc1C(=O)Nc1cnn(Cc2c(C)noc2C)c1` [Example 4-19, N-(1-((3,5-dimethylisoxazol-4-yl)methyl)-1H-pyrazol-4-yl)-2-methoxybenzamide]: the IC50 came to 390 nM.

Take `COc1cc(C(=O)Nc2cnn(Cc3c(C)noc3C)c2)ccc1O` [Example 4-20, N-(1-((3,5-dimethylisoxazol-4-yl)methyl)-1H-pyrazol-4-yl)-4-hydroxy-3-methoxybenzamide]: the IC50 was determined as 480 nM.

For the compound `COc1ccc(C(=O)Nc2cnn(Cc3c(C)noc3C)c2)cc1OC` [Example 4-21, N-(1-((3,5-dimethylisoxazol-4-yl)methyl)-1H-pyrazol-4-yl)-3,4-dimethoxybenzamide], the IC50 was 560 nM.

As to `Cc1noc(C)c1Cn1cc(NC(=O)c2ccc(F)cc2)cn1` [Example 4-23, N-(1-((3,5-dimethylisoxazol-4-yl)methyl)-1H-pyrazol-4-yl)-4-fluorobenzamide], the IC50 was determined as 1560 nM.

Consider `Cc1noc(C)c1Cn1cc(NC(=O)c2ccccc2)cn1` [Example 4-24, N-(1-((3,5-dimethylisoxazol-4-yl)methyl)-1H-pyrazol-4-yl)benzamide], for which the IC50 is 2620 nM.

With `COc1cccc(C(=O)Nc2cnn(Cc3c(C)noc3C)c2)c1OC` [Example 4-25, N-(1-((3,5-dimethylisoxazol-4-yl)methyl)-1H-pyrazol-4-yl)-2,3-dimethoxybenzamide], the IC50 turned out to be 610 nM.

Take `Cc1noc(C)c1Cn1cc(NC(=O)c2cccc(S(C)(=O)=O)c2)cn1` [Example 4-26, N-(1-((3,5-dimethylisoxazol-4-yl)methyl)-1H-pyrazol-4-yl)-3-(methylsulfonyl)benzamide]: the IC50 came out at 720 nM.

On to `COc1ccc(O)c(C(=O)Nc2cnn(Cc3c(C)noc3C)c2)c1` [Example 4-27, N-(1-((3,5-dimethylisoxazol-4-yl)methyl)-1H-pyrazol-4-yl)-2-hydroxy-5-methoxybenzamide], for which the IC50 worked out at 980 nM.

`Cc1cccc(C(=O)Nc2cnn(Cc3c(C)noc3C)c2)c1` [Example 4-28, N-(1-((3,5-dimethylisoxazol-4-yl)methyl)-1H-pyrazol-4-yl)-3-methylbenzamide]: the IC50 was 570 nM.

With `COc1cccc(CC(=O)Nc2cnn(Cc3c(C)noc3C)c2)c1OC` [Example 4-31, 2-(2,3-dimethoxyphenyl)-N-(1-((3,5-dimethylisoxazol-4-yl)methyl)-1H-pyrazol-4-yl)acetamide], the IC50 was determined as 800 nM.

As for `COc1cc(CC(=O)Nc2cnn(Cc3c(C)noc3C)c2)cc(OC)c1` [Example 4-32, 2-(3,5-dimethoxyphenyl)-N-(1-((3,5-dimethylisoxazol-4-yl)methyl)-1H-pyrazol-4-yl)acetamide], the IC50 was 960 nM.

Take `COc1ccc(CC(=O)Nc2cnn(Cc3c(C)noc3C)c2)cc1` [Example 4-33, N-(1-((3,5-dimethylisoxazol-4-yl)methyl)-1H-pyrazol-4-yl)-2-(4-methoxyphenyl)acetamide]: the IC50 is 990 nM.

Regarding `COc1ccccc1CC(=O)Nc1cnn(Cc2c(C)noc2C)c1` [Example 4-35, N-(1-((3,5-dimethylisoxazol-4-yl)methyl)-1H-pyrazol-4-yl)-2-(2-methoxyphenyl)acetamide], the IC50 worked out at 1160 nM.

Regarding `CCC(C(=O)Nc1cnn(Cc2c(C)noc2C)c1)c1ccccc1` (stereo not drawn) [Example 4-37, N-(1-((3,5-dimethylisoxazol-4-yl)methyl)-1H-pyrazol-4-yl)-2-phenylbutanamide], the IC50 was determined as 500 nM.

As to `CC(=O)OC(C(=O)Nc1cnn(Cc2c(C)noc2C)c1)c1ccccc1` (stereo not drawn) [Example 4-39, 2-(1-((3,5-dimethylisoxazol-4-yl)methyl)-1H-pyrazol-4-ylamino)-2-oxo-1-phenylethyl acetate], the IC50 was 830 nM.

As to `Cc1noc(C)c1Cn1cc(NC(=O)C(CO)c2ccccc2)cn1` (stereo not drawn) [Example 4-40, N-(1-((3,5-dimethylisoxazol-4-yl)methyl)-1H-pyrazol-4-yl)-3-hydroxy-2-phenylpropanamide], the 50% inhibitory concentration (IC50) was 960 nM.

As to `Cc1noc(C)c1Cn1cc(NC(=O)[C@H](C)c2ccccc2)cn1` [Example 4-42, (R)-N-(1-((3,5-dimethylisoxazol-4-yl)methyl)-1H-pyrazol-4-yl)-2-phenylpropanamide], the IC50 is 3720 nM.

For the compound `COC(C(=O)Nc1cnn(Cc2c(C)noc2C)c1)c1ccccc1` (stereo not drawn) [Example 4-43, N-(1-((3,5-dimethylisoxazol-4-yl)methyl)-1H-pyrazol-4-yl)-2-methoxy-2-phenylacetamide], the IC50 is 3430 nM.

`Cc1noc(C)c1Cn1cc(NC(=O)C(c2ccccc2)c2ccccc2)cn1` [Example 4-44, N-(1-((3,5-dimethylisoxazol-4-yl)methyl)-1H-pyrazol-4-yl)-2,2-diphenylacetamide]: the IC50 came out at 5190 nM.

Still in this assay, the particulars now being: read-out: IC50 on hT2R8 bitter receptor.
Regarding `Cc1noc(C)c1Cn1cc(NC(=O)c2ccc3c(c2)OCO3)cn1` [Example 4-8, N-(1-((3,5-dimethylisoxazol-4-yl)methyl)-1H-pyrazol-4-yl)benzo[d][1,3]dioxole-5-carboxamide], the IC50 turned out to be 200 nM.

With `COc1ccc(OC)c(C(=O)Nc2cnn(Cc3c(C)noc3C)c2)c1` [Example 4-9, N-(1-((3,5-dimethylisoxazol-4-yl)methyl)-1H-pyrazol-4-yl)-2,5-dimethoxybenzamide], the IC50 was 170 nM.

With `Cc1noc(C)c1Cn1cc(NC(=O)c2cccc(C#N)c2)cn1` [Example 4-10, 3-cyano-N-(1-((3,5-dimethylisoxazol-4-yl)methyl)-1H-pyrazol-4-yl)benzamide], the IC50 was 200 nM.

As for `Cc1noc(C)c1Cn1cc(NC(=O)C2(c3ccccc3)CC2)cn1` [Example 4-11, N-(1-((3,5-dimethylisoxazol-4-yl)methyl)-1H-pyrazol-4-yl)-1-phenylcyclopropanecarboxamide], the IC50 came out at 250 nM.

For `Cc1noc(C)c1Cn1cc(NC(=O)CC(C)c2ccccc2)cn1` (stereo not drawn) [Example 4-12, N-(1-((3,5-dimethylisoxazol-4-yl)methyl)-1H-pyrazol-4-yl)-3-phenylbutanamide], the IC50 was 280 nM.

As to `Cc1noc(C)c1Cn1cc(NC(=O)c2ccc[nH]2)cn1` [Example 4-13, N-(1-((3,5-dimethylisoxazol-4-yl)methyl)-1H-pyrazol-4-yl)-1H-pyrrole-2-carboxamide], the IC50 is 570 nM.

On to `Cc1noc(C)c1Cn1cc(NC(=O)CC2CCCCC2)cn1` [Example 4-14, 2-cyclohexyl-N-(1-((3,5-dimethylisoxazol-4-yl)methyl)-1H-pyrazol-4-yl)acetamide], for which the IC50 came out at 730 nM.

Consider `Cc1noc(C)c1Cn1cc(NC(=O)/C=C/c2ccccc2)cn1` [Example 4-15, N-(1-((3,5-dimethylisoxazol-4-yl)methyl)-1H-pyrazol-4-yl)cinnamamide], for which the IC50 was found to be 700 nM.

The assay is the same for the next values; noted with them: table after Example 10-97; read-out: hT2R8 IC50.
In the case of “1-((1,3-dimethyl-1H-pyrazol-4-yl)methyl)-3-(1-((3,5-dimethylisoxazol-4-yl)methyl)-1H-pyrazol-4-yl) imidazolidine-2,4-dione [Example 10-90]”, the IC50 came out at 215 nM.

What is called IC50 is the concentration that inhibits the measured activity by half.
